Results from US10358434B2, “2-(3-pyridinyl)-1H-benzimidazole derivative compound and medicament containing same” (NIHON MEDI-PHYSICS CO., LTD., priority 2014, dated 2019).

Assays:
[1] = system: human adrenal gland section expressing aldosterone-producing adenoma; assay: In vitro autoradiography using human adrenal adenoma; format: binding; settings: section of FIG. 17(b)
Procedure, shortened: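 Autoradiography readout: PSL in equal-sized ROIs over adenoma (B2) and normal adrenal cortex (B1), expressed as B2/B1 and decay-corrected using half-life, applied activity and plate contact time. Tissue was surgically excised human adrenal, frozen and cut at 7 μm, incubated 10 min with 5-33 kBq/mL tracer in BSA-containing PBS, then imaged after 16-20 h exposure.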

[2] = In vivo kinetics experiment (radioactivity distribution); design: species or system Wistar male rat; settings: rat i.v., mean ± SD
Procedure, shortened: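 Tissue radioactivity (% ID/g) and adrenal-to-blood, liver, kidney, small intestine, muscle and fat ratios determined at 10, 30 and 60 min post-dose. Tracers (approximately 1 to 3.7 MBq, saline with 1 w/v % ascorbic acid) injected i.v. into caudal vein of anesthetized 9-week male Wistar rats; organs excised, weighed, counted.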

[3] = Plasma stability evaluation (TLC analysis); format: in vitro ADME; settings: 37° C., 60 minutes, TLC analysis
Procedure, shortened: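 TLC analysis, using each compound's synthesis conditions, judged stability after methanol was added and samples were centrifuged to remove protein. Beforehand, each tracer had spent 60 minutes at 37° C in pooled heparinized normal human plasma.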

SMILES: CC(C)n1c(-c2cncc(Cn3ccnc3)c2)nc2ccc([123I])cc21 [[^123I] 606, 2-[5-{(1H-imidazol-1-yl)methyl}pyridin-3-yl]-6-[^123I]iodo-1-isopropyl-1H-benzo[d]imidazole]
- B2/B1 accumulation ratio [1]: 0.87
- B2 (PSL value, aldosterone-producing adenoma) ([1]; site 71b): 1655
- B1 (PSL value, normal adrenal cortex) ([1]; site 72b): 1913
- Adrenal gland/blood ratio of radioactivity accumulation ([2]; 10 min after administration): 85.09 ± 27.52
- Adrenal gland/fat ratio of radioactivity accumulation ([2]; 10 min after administration): 100.88 ± 26.65
- Adrenal gland/kidney ratio of radioactivity accumulation ([2]; 10 min after administration): 10.11 ± 2.69
- Adrenal gland/liver ratio of radioactivity accumulation ([2]; 10 min after administration): 4.02 ± 1.20
- Adrenal gland/muscle ratio of radioactivity accumulation ([2]; 10 min after administration): 57.42 ± 9.23
- Adrenal gland/small intestine ratio of radioactivity accumulation ([2]; 10 min after administration): 9.70 ± 3.04
- Radioactivity distribution Adrenal gland ([2]; 10 min after administration): 13.01 ± 3.75 % ID/g
- Radioactivity distribution Bladder (including urine) ([2]; 10 min after administration): 0.27 ± 0.01 % ID/g
- Radioactivity distribution Blood ([2]; 10 min after administration): 0.15 ± 0.01 % ID/g
- Radioactivity distribution Fat ([2]; 10 min after administration): 0.13 ± 0.01 % ID/g
- Radioactivity distribution Femur ([2]; 10 min after administration): 0.59 ± 0.02 % ID/g
- Radioactivity distribution Heart ([2]; 10 min after administration): 0.56 ± 0.04 % ID/g
- Radioactivity distribution Kidney ([2]; 10 min after administration): 1.29 ± 0.11 % ID/g
- Radioactivity distribution Large intestine ([2]; 10 min after administration): 0.17 ± 0.00 % ID/g
- Radioactivity distribution Liver ([2]; 10 min after administration): 3.24 ± 0.05 % ID/g
- Radioactivity distribution Lung ([2]; 10 min after administration): 0.86 ± 0.07 % ID/g
- Radioactivity distribution Muscle (lower limbs) ([2]; 10 min after administration): 0.22 ± 0.04 % ID/g
- Radioactivity distribution Remaining whole body ([2]; 10 min after administration): 0.29 ± 0.02 % ID/g
- Radioactivity distribution Small intestine ([2]; 10 min after administration): 1.35 ± 0.04 % ID/g
- Radioactivity distribution Spleen ([2]; 10 min after administration): 4.55 ± 0.41 % ID/g
- Radioactivity distribution Stomach ([2]; 10 min after administration): 0.75 ± 0.09 % ID/g
- Radioactivity distribution Testis ([2]; 10 min after administration): 0.08 ± 0.00 % ID/g
- Radioactivity distribution Whole brain ([2]; 10 min after administration): 0.03 ± 0.00 % ID/g
- Adrenal gland/blood ratio of radioactivity accumulation ([2]; 30 min after administration): 151.28 ± 30.77
- Adrenal gland/fat ratio of radioactivity accumulation ([2]; 30 min after administration): 172.63 ± 42.67
- Adrenal gland/kidney ratio of radioactivity accumulation ([2]; 30 min after administration): 20.98 ± 3.60
- Adrenal gland/liver ratio of radioactivity accumulation ([2]; 30 min after administration): 8.21 ± 1.88
- Adrenal gland/muscle ratio of radioactivity accumulation ([2]; 30 min after administration): 130.86 ± 25.55
- Adrenal gland/small intestine ratio of radioactivity accumulation ([2]; 30 min after administration): 7.82 ± 2.11
- Radioactivity distribution Adrenal gland ([2]; 30 min after administration): 21.23 ± 4.43 % ID/g
- Radioactivity distribution Bladder (including urine) ([2]; 30 min after administration): 1.17 ± 0.36 % ID/g
- Radioactivity distribution Blood ([2]; 30 min after administration): 0.14 ± 0.00 % ID/g
- Radioactivity distribution Fat ([2]; 30 min after administration): 0.12 ± 0.01 % ID/g
- Radioactivity distribution Femur ([2]; 30 min after administration): 0.50 ± 0.01 % ID/g
- Radioactivity distribution Heart ([2]; 30 min after administration): 0.44 ± 0.01 % ID/g
- Radioactivity distribution Kidney ([2]; 30 min after administration): 1.01 ± 0.04 % ID/g
- Radioactivity distribution Large intestine ([2]; 30 min after administration): 0.23 ± 0.01 % ID/g
- Radioactivity distribution Liver ([2]; 30 min after administration): 2.59 ± 0.07 % ID/g
- Radioactivity distribution Lung ([2]; 30 min after administration): 0.65 ± 0.03 % ID/g
- Radioactivity distribution Muscle (lower limbs) ([2]; 30 min after administration): 0.16 ± 0.01 % ID/g
- Radioactivity distribution Remaining whole body ([2]; 30 min after administration): 0.24 ± 0.01 % ID/g
- Radioactivity distribution Small intestine ([2]; 30 min after administration): 2.75 ± 0.21 % ID/g
- Radioactivity distribution Spleen ([2]; 30 min after administration): 3.80 ± 0.26 % ID/g
- Radioactivity distribution Stomach ([2]; 30 min after administration): 1.66 ± 0.35 % ID/g
- Radioactivity distribution Testis ([2]; 30 min after administration): 0.11 ± 0.01 % ID/g
- Radioactivity distribution Whole brain ([2]; 30 min after administration): 0.03 ± 0.00 % ID/g
- Adrenal gland/blood ratio of radioactivity accumulation ([2]; 60 min after administration): 161.94 ± 14.16
- Adrenal gland/fat ratio of radioactivity accumulation ([2]; 60 min after administration): 229.99 ± 79.47
- Adrenal gland/kidney ratio of radioactivity accumulation ([2]; 60 min after administration): 22.62 ± 2.40
- Adrenal gland/liver ratio of radioactivity accumulation ([2]; 60 min after administration): 8.81 ± 1.68
- Adrenal gland/muscle ratio of radioactivity accumulation ([2]; 60 min after administration): 168.08 ± 24.28
- Adrenal gland/small intestine ratio of radioactivity accumulation ([2]; 60 min after administration): 5.20 ± 0.46
- Radioactivity distribution Adrenal gland ([2]; 60 min after administration): 19.67 ± 3.42 % ID/g
- Radioactivity distribution Bladder (including urine) ([2]; 60 min after administration): 2.06 ± 0.40 % ID/g
- Radioactivity distribution Blood ([2]; 60 min after administration): 0.12 ± 0.01 % ID/g
- Radioactivity distribution Fat ([2]; 60 min after administration): 0.09 ± 0.02 % ID/g
- Radioactivity distribution Femur ([2]; 60 min after administration): 0.62 ± 0.04 % ID/g
- Radioactivity distribution Heart ([2]; 60 min after administration): 0.40 ± 0.02 % ID/g
- Radioactivity distribution Kidney ([2]; 60 min after administration): 0.87 ± 0.07 % ID/g
- Radioactivity distribution Large intestine ([2]; 60 min after administration): 0.35 ± 0.06 % ID/g
- Radioactivity distribution Liver ([2]; 60 min after administration): 2.24 ± 0.16 % ID/g
- Radioactivity distribution Lung ([2]; 60 min after administration): 0.60 ± 0.03 % ID/g
- Radioactivity distribution Muscle (lower limbs) ([2]; 60 min after administration): 0.12 ± 0.01 % ID/g
- Radioactivity distribution Remaining whole body ([2]; 60 min after administration): 0.22 ± 0.01 % ID/g
- Radioactivity distribution Small intestine ([2]; 60 min after administration): 3.77 ± 0.38 % ID/g
- Radioactivity distribution Spleen ([2]; 60 min after administration): 3.05 ± 0.35 % ID/g
- Radioactivity distribution Stomach ([2]; 60 min after administration): 1.90 ± 0.35 % ID/g
- Radioactivity distribution Testis ([2]; 60 min after administration): 0.16 ± 0.03 % ID/g
- Radioactivity distribution Whole brain ([2]; 60 min after administration): 0.03 ± 0.00 % ID/g
- Radiochemical purity after incubation in human plasma [3]: 88%
